{"source": "patent US20230390315A1", "about": "“COMPOSITIONS AND METHODS FOR TREATING ISCHEMIC CONDITIONS” (The Regents of the University of California, priority 2020, published 2023)", "key": {"[1]": {"test_system": "human retinal microvascular EC (hRMECs)", "assay": "hRMEC proliferation assay", "type": "cell-based", "experimental": "Proliferation assays with BCECs and BRECs were performed. Log-phase growing BCECs or BRECs (passage <10) were trypsinized, re-suspended and seeded in 96-well plates (no coating) in low-glucose DMEM supplemented with 10% bovine calf serum, 2 mM glutamine, and antibiotics (growth medium), at a density of 1200-1500 cells per well in 200 μl volume. All reagents were added at the indicated final concentrations. After 3-6 days, cells were incubated with AlamarBlue for 4 hrs. Fluorescence was measured at 530 nm excitation wavelength and 590 nm emission wavelength. The experiments were repeated at least three times. To create a hypoxic condition, cells were placed in a hypoxia incubator with a mixture of gas consisting of 1% 02, 5% CO2 and 94% Nz. On each 96-well plate, untreated and VEGF-treated (10/ng/ml) wells were included to monitor plate-to-plate variations. 20% methanol or 0.05% DMSO served as negative controls. 0.05% DMSO served as negative controls when Cas was tested in these cells. Human RMVECs and human adult DMVECs were split into Gelatin-coated 96 wells (2000 cells per well) in low glucose DMEM containing 10% FBS. 1200 cells/well was set up for proliferation assay in low glucose media containing FBS. Data was collected at day 4 or 5. HUVEC (p7-10) were grown on gelatin-coated plate until it reached 70-80% confluency."}, "[2]": {"target": "T1, α-mannosidase from Jack Bean (Canavalia ensiformis, UniProt C0HJB3)", "T1 construct": "purchased M7257", "T1 sequence (C0HJB3 whole entry)": "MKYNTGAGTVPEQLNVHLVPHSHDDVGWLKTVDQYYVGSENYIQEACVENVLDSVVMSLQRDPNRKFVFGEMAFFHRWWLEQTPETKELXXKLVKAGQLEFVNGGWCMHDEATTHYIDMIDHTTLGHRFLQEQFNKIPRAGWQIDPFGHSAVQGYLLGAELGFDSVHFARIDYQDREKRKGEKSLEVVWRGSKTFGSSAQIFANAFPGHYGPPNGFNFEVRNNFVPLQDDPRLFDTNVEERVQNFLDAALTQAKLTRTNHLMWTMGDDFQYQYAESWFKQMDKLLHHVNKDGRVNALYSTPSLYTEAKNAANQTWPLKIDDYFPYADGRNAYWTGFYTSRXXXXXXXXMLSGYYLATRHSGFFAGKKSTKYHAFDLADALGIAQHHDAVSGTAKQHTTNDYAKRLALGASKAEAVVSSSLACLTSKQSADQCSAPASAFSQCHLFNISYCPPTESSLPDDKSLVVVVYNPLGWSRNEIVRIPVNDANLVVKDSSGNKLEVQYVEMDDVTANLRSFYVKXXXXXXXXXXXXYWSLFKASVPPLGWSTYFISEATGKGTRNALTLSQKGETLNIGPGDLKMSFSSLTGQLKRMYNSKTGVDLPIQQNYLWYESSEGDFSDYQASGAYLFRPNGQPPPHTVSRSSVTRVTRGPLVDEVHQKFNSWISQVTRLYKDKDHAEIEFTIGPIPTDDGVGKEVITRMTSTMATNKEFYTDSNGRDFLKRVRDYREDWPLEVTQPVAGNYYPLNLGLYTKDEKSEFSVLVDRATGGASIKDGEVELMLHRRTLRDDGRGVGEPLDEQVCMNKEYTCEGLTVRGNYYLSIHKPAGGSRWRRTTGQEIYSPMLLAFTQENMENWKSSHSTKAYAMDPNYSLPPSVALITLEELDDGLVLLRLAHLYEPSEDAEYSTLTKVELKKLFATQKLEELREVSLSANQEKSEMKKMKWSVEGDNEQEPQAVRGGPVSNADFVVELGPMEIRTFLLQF", "assay": "α-mannosidase activity assay", "type": "biochemical", "procedure": "a-mannosidase activity was measured using substrate p-nitrophenyl α-mannopyranoside (1 mM). Enzyme from Jack Bean ([MUT]) (final concentration of 0.077 U) was incubated at 37° C. in a final volume of 50 μl of 50 mM potassium phosphate buffer, pH 7.5. α-glucosidase was assayed with substrate p-nitrophenyl α-glucoside (7 mM). […] The incubation was stopped by addition of an equal volume of acid-based stop solution (R&D systems, 895032)."}, "U87MG": {"test_system": "U87MG", "assay": "U87MG proliferation assay", "type": "cell-based, human", "experimental": "(§1) Proliferation assays with fibroblasts were done in low-glucose DMEM containing 1% FBS, with or without 10 ng/ml bFGF, or 100 ng/ml human EGF and the assay was ended at day 3. ARPE-19 cells were gently lifted with 0.025% trypsin and plated in RtEGM media (Clonetics) containing 2% FBS, L-glutamine, human bFGF and GA-1000. Once cells were attached to plates, serum-free RtEGM media was used to maintain the cultures. For proliferation assays, 1500 human RPE cells were plated into 96-well plates in low-glucose DMEM containing 1% FBS. A673, U87MG, Calu6 and AML12 cells were grown until confluent and were then harvested and re-suspended in appropriate assay media. For proliferation assays, cells were plated at the density of 1000-2000 cells/well in low-glucose DMEM containing 5% FBS or otherwise stated. Bovine pituitary cells (pituitary folliculostellate cells) were isolated as previously described. For proliferation assays with human epidermal keratinocytes, human DMVECs and human dermal fibroblast cells, 1000 cells/well were plated in low-glucose DMEM containing 1% FBS with or without various growth factors. The assay was ended at day 3 for bovine pituitary cells and at day 4 for all the other cell types. […] Four days later, tumor cell growth was measured by the MTS assay (Promega, Madison, WI), a colorimetric assay that measures metabolic activity of viable cells. […]"}, "4T1 cells": {"test_system": "4T1 cells", "assay": "4T1 proliferation assay (MTS)", "type": "cell-based, mouse"}, "AML12 liver cells": {"test_system": "AML12 liver cells", "assay": "AML12 proliferation assay", "type": "cell-based, mouse", "experimental": "as §1"}, "bovine pituitary cells": {"test_system": "bovine pituitary cells", "assay": "Bovine pituitary cell proliferation assay", "type": "cell-based", "settings": "alone or in combination with growth factors", "experimental": "as §1"}, "ARPE-19 RPE cells": {"test_system": "ARPE-19 RPE cells", "assay": "Human RPE cell proliferation assay", "type": "cell-based", "experimental": "as §1"}, "[3]": {"assay": "ManN stability in wound fluid from S. aureus infected mice", "type": "in vitro ADME, mouse", "settings": "up to 24 hours at 37° C.", "experimental": "To test ManN stability in wound fluid collected from mice with skin infection as described below, 1.5 μl of 5% ManN solution was added to each 200 μl wound fluid which was first diluted 1:1 (v/v) with PBS. At each time point, samples were taken from 37° C. incubator and stored at −80° C. Plasma proteins were precipitated by adding ice cold acetonitrile to plasma: acetonitrile 1:3 (v/v) ratio. Samples were kept over ice for 1 hr and then centrifuged at 12000 g for 10 min at 7° C. to form a pellet. Supernatants were transferred to other tubed, dried down on a Speed Vac and then reconstituted in UltraPure distilled water and filtered through pre-washed Nanosep 3K Omega filters (Pall Corporation). The filtrate was dried down on Speed Vac. The dry samples were dissolved in 100 μl of water and 2 μL plasma or wound fluid sample was subjected to HPLC analysis. Neutral and amino sugars were separated on a Dionex CarboPac™ PA1 column 4 mm×250 mm with 4 mm×50 mm guard column. An isocratic gradient of 19 mM sodium hydroxide with 0.95 mM sodium acetate was used at a flow rate of 1 ml/min with 20 min run. Data was collected using the Dionex ICS-3000 HPLC system with pulsed amperometric detector using standard Quad waveform. ManN was identified and quantified by comparison with monosaccharide standard using Thermo Scientific Chromeleon software. No ManN samples served as negative controls. […]"}, "[4]": {"settings": "in vivo"}, "[5]": {"settings": "alone or in combination with growth factors"}}}
{"compound": "N[C@H](C=O)[C@@H](O)[C@H](O)[C@H](O)CO", "note": "[ManN, 2-Amino-2-deoxy-D-mannose]", "values": [{"measurement": "additivity with VEGF on proliferation", "setting": "[1]", "result": "dose-dependent additivity with VEGF"}, {"measurement": "toxicity", "setting": "[1]; at 5 mM", "result": "minimal toxicity"}, {"measurement": "concentration showing inhibitory activity", "setting": "[2]", "result": 400, "unit": "µM"}, {"measurement": "growth of U87MG", "setting": "U87MG", "result": "did not promote growth"}, {"measurement": "growth of 4T1", "setting": "4T1 cells", "result": "did not promote growth"}, {"measurement": "toxicity on 4T1 cells", "setting": "4T1 cells; at 5 mM", "result": "significant toxicity"}, {"measurement": "cellular toxicity, sensitivity among cell types", "setting": "AML12 liver cells; 5 mM level of ManN", "result": "most sensitive"}, {"measurement": "proliferation of AML12", "setting": "AML12 liver cells; [5]", "result": "no increases in proliferation"}, {"measurement": "proliferation of bovine pituitary cells", "setting": "bovine pituitary cells", "result": "no increases in proliferation"}, {"measurement": "cellular toxicity, sensitivity among cell types", "setting": "ARPE-19 RPE cells; 5 mM level of ManN", "result": "least sensitive"}, {"measurement": "proliferation of human RPEs", "setting": "ARPE-19 RPE cells; [5]", "result": "no increases in proliferation"}, {"measurement": "loss of free ManN on incubation with wound fluid", "setting": "[3]", "result": "No significant loss of free ManN"}, {"measurement": "plasma free ManN peak level", "setting": "[4]; male, C57BL/6, mouse, po", "result": "~100", "unit": "nmol/ml plasma"}, {"measurement": "time of plasma peak level", "setting": "[4]; male, C57BL/6, mouse, po", "result": 1, "unit": "h"}, {"measurement": "free ManN in ischemic leg muscle", "setting": "[4]; male, C57BL/6, mouse, po, 2 h", "result": "0.17+/−0.18 nmol/mg protein"}, {"measurement": "plasma free ManN detectable relative to peak", "setting": "[4]; mouse", "result": "about half of that amount"}]}
